Results taken from article PMC10214526, “Semisynthetic LC3 Probes for Autophagy Pathways Reveal a Noncanonical LC3 Interacting Region Motif Crucial for the Enzymatic Activity of Human ATG3” (ACS Central Science, 2023).
Where no end group is shown, it is not given here.

Assays:
ATG3 [1] = experiment: Reaction (cross-linking) of Ubl activity-based probes with recombinant ATG3 and variants; format: biochemical, human; conditions: probe 15 μM; ATG3 wt, C264A and ΔLIR 5 μM; SDS-PAGE (Figure S9)
ATG3 [2] = experiment: as above; format: biochemical, human; conditions: for Reaction with ATG3 C0: ATG3 C0 (no cysteines) 15 μM; for Reaction with ATG3 C1: ATG3 C1 (only active-site C264) 15 μM; for Reaction with ATG3 ΔLIR: ATG3 C1 ΔLIR (Δ95–111) 15 μM
Description: Figure 1 Modification of ATG3 with GABARAP ABPs depends on LIR^ATG3. a. Characterization of GABARAP activity-based probes, 1 and 2, obtained by hydrazide-acylation. Deconvoluted mass-spectrum (ESI) of GABARAP(ΔG116)–NHNH α-chloroacetyl 1. Expected mass 13707 Da. Deconvoluted mass-spectrum (ESI) of GABARAP(ΔG116)–NHNH methyl-fumarate 2. Expected mass 13743 Da. b. […] The reaction was allowed to proceed for 1 h and was analyzed by SDS-PAGE and Coomassie Blue staining. c. ColabFold-predicted structure of the protein-complex of ATG3 and GABARAP. Side-chain atoms are shown for the predicted LIR motif in ATG3 (90–112). d. Reaction of 2 (15 μM) with ATG3 variants C1, C0, and ΔLIR (15 μM). ATG3 C1 contains only active-site cysteine C264. ATG3 C0 contains no cysteines. ATG3 ΔLIR lacks amino acids 95–111. Reaction was allowed to proceed for 1 h and was analyzed by SDS-PAGE and Coomassie Blue staining. Full-gel images for b and d are available in the Supplementary Information.
We were intrigued by the cross-linking efficiency of 2 with ATG3 and sought to investigate the origin of this efficiency by generating a C1 variant of ATG3 that only contains the catalytic cysteine 264 and a corresponding C0 variant containing no cysteines. […] In general, the affinity of E2s for their cognate Ubls are quite low, as the thioester transfer from the E1 to the E2 enzyme is facilitated by additional interactions from the UFD domain of the E1 enzyme.[23] […]
Upon completion the solution was dialyzed against 25 mM
HEPES, 200 mM NaCl pH 7.2 at 4 °C. Cleaved intein was removed using gravity Ni-NTA purification.
The flow-through was collected and combined with resin washes. The combined fractions were dialyzed and further purified using ion exchange.
3.3. Generation of GABARAP and LC3A hydrazides from SUMO-GABARAP/LC3A-Mxe GyrA-
SUMO-GABARAP/LC3A-Mxe GyrA-His6 fusion after Ni-NTA purification was dialyzed against intein cleavage buffer (25 mM HEPES, 500 mM NaCl, 1 mM EDTA pH 7.2 at 4 °C). After dialysis hydrazine monohydrate (75 mM) and MESNa (10 mM) was added and the pH adjusted to 7.8. The solution was allowed to stand at room temperature and monitored using LC-MS analysis. Upon completion the solution was dialyzed against 25 mM HEPES, 500 mM NaCl pH 7.2 at 4 °C. SENP1 (1 wt%) was added to cleave the SUMO-tag. The cleaved intein was removed using gravity Ni-NTA purification. […]
dialyzed and further purified using cation exchange using a buffer 25 mM Tris pH 8.0 and a gradient of […] in the same buffer over 25 column volumes. The product fractions were pooled, concentrated, and stored at –80 °C until further use.
3.4. Synthesis of symmetrical anhydrides
The carboxylic acid was dissolved in CH2Cl2 (300 mM) and dicyclohexylcarbodiimide (0.5 eqiv) was added in one portion. The reaction was stirred under N2 for 18 h. The suspension was filtered and concentrated to ~10% of the initial volume. The solution was placed at 4 °C for 1 h and filtered again.
The filtrate was concentrated to obtain the symmetrical anhydride which was used without further purification. Anhydrides can be stored at –20 °C for weeks.
3.5. Reaction of modified Ubl probes with E2s
Ubl probes (15 μM) were mixed with E2s (15 μM) in PBS. The mixture was incubated at 37 °C in a water bath for 0.5-3 h. The reaction was quenched by addition of 2x Laemmli buffer and boiled at 95 °C for 5 min. Samples were resolved by SDS-PAGE (8-16%, Bio-Rad) and visualized by […]
Coomassie staining. […]

LC3A = molecular target: T1, LC3A (Homo sapiens, UniProt Q9H492); experiment: Fluorescence polarization binding of fluorescein-modified LIR^ATG3 peptides to LC3A
T1 construct: His6-SUMO (pOPINS) (N, cleaved yes); made in house; host or cells: E. coli Rosetta-CodonPlus (DE3)-RIL
Text: (§1) Figure 2 Characterization of LIR^ATG3. a. Reaction scheme outlining competition assay used for b, c, and d. b. Coomassie Blue-stained SDS-PAGE analysis for reaction of 2 with ATG3 C1 in the presence of varying concentrations of linear LIR^ATG3 peptide 5 as outlined in a. c. Coomassie Blue-stained SDS-PAGE analysis for reaction of 2 with ATG3 C1 in the presence of varying concentrations of cyclized LIR^ATG3 peptide 6 as outlined in a. d. Quantification of competition assays shown in b and c. The amount of GABARAP–ATG3 C1 complex was quantified by gel-densitometry and normalized to the reaction without peptide for each gel. […] Data are presented as average values ± s.d. e. Fluorescence polarization binding-data of fluorescein-modified LIR^ATG3 peptide binding to GABARAP. Either linear, cyclized, or truncated (103–111) LIR^ATG3 peptide was used. […] Fluorescence polarization data of fluorescein-modified LIR^ATG3 peptide binding to LC3A. […]
(§2) 3.13.Fluorescence polarization measurement
(§3) Fluorescent peptides were dissolved in DMSO and PBS. The concentration was determined by UV - absorption and extinction coefficient at 280 nm. […] Protein concentration was determined using UV-absorption and extinction coefficient at 280 nm. […]
(§4) 0.047 μM. […] Fluorescence polarization and intensity was measured on a Victor Nivo Plate Reader (Perkin Elmer). […]

GABARAP = molecular target: T2, GABARAP (Homo sapiens, UniProt O95166); experiment: Fluorescence polarization binding of fluorescein-modified LIR^ATG3 peptides to GABARAP; conditions: response letter; truncated LIR peptide (103–111)
T2 construct: His6-SUMO (pOPINS) (N, cleaved yes); made in house; host or cells: E. coli Rosetta-CodonPlus (DE3)-RIL
Text: as §1, §2, §3, §4

T2 sequence (O95166 whole entry, the tested form may be a part): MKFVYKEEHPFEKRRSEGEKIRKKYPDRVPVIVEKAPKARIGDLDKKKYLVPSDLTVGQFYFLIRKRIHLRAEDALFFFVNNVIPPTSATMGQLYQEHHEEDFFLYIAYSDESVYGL

Substance: GABARAP(ΔG116)–NHNH α-chloroacetyl [compound 1]
- LIR dependence of ATG3 wild-type modification (ATG3 [1]): dependent on LIRATG3
- LIR dependence of cross-linking with ATG3 (ATG3 [2]; ATG3 with or without LIR): strictly dependent on LIR^ATG3
- Cross-linking with ATG3 C1 vs C0 (ATG3 [2]; probe 1 15 μM, ATG3 C1 or C0 15 μM, 1 h (Figure S2)): Cross-linking was only observed for ATG3 C1

Substance: LC3A(ΔG120)–NHNH methyl fumarate [compound 4]
- Reaction with ATG3 C0 (ATG3 [2]; probe 15 μM, SDS-PAGE): no reaction
- Reaction with ATG3 C1 (ATG3 [2]; probe 15 μM, SDS-PAGE): efficient reaction
- Reaction with ATG3 ΔLIR (ATG3 [2]; probe 15 μM, SDS-PAGE): no reaction

Substance: LC3A(ΔG120)–NHNH α-chloroacetyl [compound 3]
- Reaction with ATG3 C0 (ATG3 [2]; probe 15 μM, SDS-PAGE): no reaction
- Reaction with ATG3 C1 (ATG3 [2]; probe 15 μM, SDS-PAGE): efficient reaction
- Reaction with ATG3 ΔLIR (ATG3 [2]; probe 15 μM, SDS-PAGE): no reaction

Substance: Ub(ΔGG)–NHNH methyl fumarate [Ub(ΔGG) methyl fumarate probe, reference compound]
- Reaction with ATG3 wt (ATG3 [2]; probe 15 μM, ATG3 15 μM, 1 h, SDS-PAGE, Coomassie Blue): did not react

Substance: truncated LIR^ATG3: fluorescein-modified truncated (103–111) LIR^ATG3 peptide, amino acids G103-Y111 including the core LIR motif (GDGGWVDTY; also: fluorescein, position not given here)
- fold weaker binding of truncated peptide than linear peptide (LC3A; GABARAP or LC3A not stated, truncated (103–111) vs linear): 6 fold
- fold weaker affinity of truncated peptide, LC3A (LC3A; response letter, truncated LIR peptide lacking amino acids 104-95): > 8 fold
- fold weaker affinity of truncated peptide, GABARAP (GABARAP): > 8 fold
